Tested on: HSV-1 gE/gI
Experiment: Total anti-HSV-1 gE/gI cross-reactive IgG antibodies by ELISA in serum of immunised mice
Format: in vivo, CB6F1 mice
Conditions: 0.1 ug LNP/SAM i.m. days 0 & 28, adjuvanted with 2.22 ug of STING agonist at day+0, +1 or +3; 21PII (day 49); FIG. 3
Description: Female CB6F1 inbred mice aged 6-8 weeks old were randomly assigned to study groups (n=8 gr1-10 (groups 1-10) and n=4/gr11 (group 11)) and kept under pathogen-free conditions. Mice ([…]) were intramuscularly (i.m.) immunized, in the gastrocnemius muscle, on days 0 and 28 with 0.1ug of LNP-formulated SAM (25 uL volume) comprising a heterodimer of the HSV-2 gE and gI proteins (LNP/SAM-gE_P317R/gI) and were injected, in the same muscle, with different doses of STING agonist (0.25, 0.74 or 2.22ug) either at the same time (day+0) or 1 or 3 days after each of the two SAM immunizations. […]
Quantification of the total HSV-1 gE/gI-specific IgG antibodies was performed using indirect ELISA. […]
The plates were then washed four times with washing buffer and 2 times with deionised water and incubated for 15 min at RT (room temperature) with 100 uL/well of a solution of 75% single-component TMB peroxidase ELISA substrate diluted in sodium citrate 0.1M pH5.5 buffer. Enzymatic color development was stopped with 100 uL of […] sulfuric acid 1M (H2SO4) per well and the plates were read at an absorbance of 450/620 nm using an ELISA reader. Optical densities (OD) were captured and analysed. […] Antibody titer in the samples was calculated by interpolation of the standard curve. […]

CCn1nc(C)cc1C(=O)/N=c1\[nH]c2cc(C(N)=O)cc(OC)c2n1C/C=C/Cn1/c(=N/C(=O)c2cc(C)nn2CC)[nH]c2cc(C(N)=O)cc(OCCCOP(=O)(O)O)c21 [STING, 3-(((E)-6-carbamoyl-3-((E)-4-((E)-5-carbamoyl-2-((1-ethyl-3-methyl-1H-pyrazole-5-carbonyl)imino)-7-methoxy-2,3-dihydro-1H-benzo[d]imidazol-1-yl)but-2-en-1-yl)-2-((1-ethyl-3-methyl-1H-pyrazole-5-carbonyl)imino)-2,3-dihydro-1H-benzo[d]imidazol-4-yl)oxy)propyl]
GM titers of anti-HSV-1 gE/gI cross reactive IgG antibody relative to unadjuvanted control: increased GM titers of anti-HSV-1 gE/gI cross reactive IgG antibody in all groups

From patent US20240285755A1, “Adjuvants” (GlaxoSmithKline Biologicals SA, priority 2021, published 2024)
